System: Hela cells
Test: Cell viability by WST assay (WST-8, Cell Counting Kit-8)
Assay type: cell-based
Details: 10 ul of radical DX, 20 ug/ml of distilled water
Protocol: The same liposomes were exposed to ultrasound for 5 minutes at different amplitudes (i.e., 50%, 75%, and 100% of the maximum amplitude) at a frequency of 20 kHz. 10 ul of the sonicated liposomes (DX concentration of 20 ug/ml) was immediately added to Hela cells as described above, and then, incubated for 30 minutes. As a control group, a group treated with 10 ul of PBS, a group treated with 10 ul of radical DX (20 ug/ml of distilled water), and a group wherein HeLa cells are incubated at a temperature of 42° C. were all included. The cell viability thereof was obtained by counting viable cells using a WST assay [2-(2-methoxy-4-nitrophenyl)-3-(4-nitrophenyl)-5-(2,4-disulfophenyl)-2H-tetrazolium, monosodium salts] (WST-8, Cell Counting Kit-8, Dojindo, Japan).

COc1cccc2c1C(=O)c1c(O)c3c(c(O)c1C2=O)C[C@@](O)(C(=O)CO)C[C@@H]3O[C@H]1C[C@H](N)[C@H](O)[C@H](C)O1 [radical Dx, Doxorubicin]
cell viability, compared with the sonicated liposomes (about 15%): similar

Reference: patent publication US9220718B2, “Sonosensitive liposome, pharmaceutical composition including the same, and method of delivering active agent to subject using the sonosensitive liposome” (Samsung Electronics Co., Ltd., priority 2013, dated 2015)
